The source made the active and inactive calls. The calls are words filed in the database; no cut-off is given here.
Tests used:
HepG2 [1] = experiment: Antiproliferative activity against human HepG2 cells assessed as reduction in cell growth incubated for 48 hrs by MTT assay; assay type: functional, cell-based; conditions: HepG2, 48 h
HepG2 [2] = experiment: Inhibition of cell migration in human HepG2 cells at IC50 incubated for 48 hrs by phase contrast microscopy; assay type: functional
HepG2 [3] = experiment: Inhibition of EGFR/MAPK signalling pathway in human HepG2 cells assessed as reduction in phosphorylation of B-RAF at 2 uM incubated for 8 hrs by Western blot analysis; assay type: cell-based
HepG2 [4] = experiment: Inhibition of EGFR/MAPK signalling pathway in human HepG2 cells assessed as reduction in phosphorylation of EGFR at 2 uM incubated for 2 hrs by Western blot analysis; assay type: cell-based
HepG2 [5] = experiment: Inhibition of EGFR/MAPK signalling pathway in human HepG2 cells assessed as reduction in phosphorylation of MEK at 2 uM incubated up to 48 hrs by Western blot analysis; assay type: cell-based
HepG2 [6] = experiment: Inhibition of EGFR/MAPK signalling pathway in human HepG2 cells assessed as reduction in phosphorylation of ERK 1/2 at 2 uM incubated up to 48 hrs by Western blot analysis; assay type: cell-based
HepG2 [7] = experiment: Induction of cell cycle arrest in human HepG2 cells assessed as accumulation at G2 phase at 4 uM incubated for 24 hrs by flow cytometry analysis (reference value: 37.5%); assay type: functional
HepG2 [8] = experiment: Induction of cell cycle arrest in human HepG2 cells assessed as accumulation at G1 phase at 1 uM incubated for 24 hrs by flow cytometry analysis (reference value: 32.3%); assay type: functional
HepG2 [9] = experiment: Induction of cell cycle arrest in human HepG2 cells assessed as accumulation at S phase at 1 uM incubated for 24 hrs by flow cytometry analysis (reference value: 26.1%); assay type: functional
HepG2 [10] = experiment: Induction of cell cycle arrest in human HepG2 cells assessed as accumulation at G2 phase at 1 uM incubated for 24 hrs by flow cytometry analysis (reference value: 37.5%); assay type: functional
HepG2 [11] = experiment: Induction of cell cycle arrest in human HepG2 cells assessed as accumulation at G1 phase at 4 uM incubated for 24 hrs by flow cytometry analysis (reference value: 32.3%); assay type: functional
HepG2 [12] = experiment: Inhibition of EGFR/MAPK signalling pathway in human HepG2 cells assessed as reduction in phosphorylation of B-RAF at 3 uM incubated for 24 hrs by Western blot analysis; assay type: cell-based
HepG2 [13] = experiment: Inhibition of EGFR/MAPK signalling pathway in human HepG2 cells assessed as reduction in phosphorylation of MEK at 3 uM incubated up to 48 hrs by Western blot analysis; assay type: cell-based
HepG2 [14] = experiment: Induction of cell cycle arrest in human HepG2 cells assessed as accumulation at S phase at 2 uM incubated for 24 hrs by flow cytometry analysis (reference value: 26.1%); assay type: functional
HepG2 [15] = experiment: Induction of apoptosis in human HepG2 cells assessed as increase in cleaved caspase-9 level at 2 uM incubated for 48 hrs by Western blot analysis; assay type: functional, cell-based
HepG2 [16] = experiment: Inhibition of EGFR/MAPK signalling pathway in human HepG2 cells assessed as reduction in ELK phosphorylation incubated for 24 hrs by Western blot analysis; assay type: cell-based
HepG2 [17] = experiment: Induction of cell cycle arrest in human HepG2 cells assessed as accumulation at S phase at 4 uM incubated for 24 hrs by flow cytometry analysis (reference value: 26.1%); assay type: functional
HepG2 [18] = experiment: Inhibition of EGFR/MAPK signalling pathway in human HepG2 cells assessed as reduction in phosphorylation of ERK 1/2 at 3 uM incubated up to 48 hrs by Western blot analysis; assay type: cell-based
HepG2 [19] = experiment: Induction of apoptosis in human HepG2 cells assessed as increase in cleaved caspase-3 level at 2 uM incubated for 48 hrs by Western blot analysis; assay type: functional, cell-based
HepG2 [20] = experiment: Induction of apoptosis in human HepG2 cells assessed as increase in cleaved PARP-1 level at 2 uM incubated for 48 hrs by Western blot analysis; assay type: functional, cell-based
HepG2 [21] = experiment: Inhibition of EGFR/MAPK signalling pathway in human HepG2 cells assessed as reduction in phosphorylation of EGFR at 3 uM incubated for 48 hrs by Western blot analysis; assay type: cell-based
HepG2 [22] = experiment: Induction of cell cycle arrest in human HepG2 cells assessed as accumulation at G1 phase at 2 uM incubated for 24 hrs by flow cytometry analysis (reference value: 32.3%); assay type: functional
HepG2 [23] = experiment: Induction of cell cycle arrest in human HepG2 cells assessed as accumulation at G2 phase at 2 uM incubated for 24 hrs by flow cytometry analysis (reference value: 37.5%); assay type: functional

## COc1ccc2c(c1)CC[C@@H]1[C@@H]2CC[C@]2(C)C([C@@](C)(O)C(=O)/C=C/c3ccc([N+](=O)[O-])cc3)=CC[C@@H]12
HepG2 [1]
  IC50: 20 µM

## COc1ccc2c(c1)CC[C@@H]1[C@@H]2CC[C@]2(C)C([C@](C)(O)C(=O)/C=C/c3ccc(F)cc3)=CC[C@@H]12
HepG2 [1]
  IC50: 8 µM

## COc1ccc2c(c1)CC[C@@H]1[C@@H]2CC[C@]2(C)C([C@@](C)(O)C(=O)/C=C/c3ccc(C(F)(F)F)cc3)=CC[C@@H]12
HepG2 [1]
  IC50: 2 µM

## COc1ccc(/C=C/C(=O)[C@](C)(O)C2=CC[C@H]3[C@@H]4CCc5cc(OC)ccc5[C@H]4CC[C@]23C)cc1
HepG2 [1]
  IC50: 2 µM

## C#Cc1cccc(Nc2ncnc3cc(OCCOC)c(OCCOC)cc23)c1 [ERLOTINIB]
HepG2 [2]
  inhibition (INH): 93%

## COc1ccc2c(c1)CC[C@@H]1[C@@H]2CC[C@]2(C)C([C@](C)(O)C(=O)/C=C/C(C)(C)O)=CC[C@@H]12
HepG2 [3]
  inhibition: Active
HepG2 [4]
  inhibition: Active
HepG2 [1]
  IC50: 3 µM
HepG2 [5]
  inhibition: Active
HepG2 [2]
  inhibition: Active
HepG2 [6]
  inhibition: Active

## COc1ccc2c(c1)CC[C@@H]1[C@@H]2CC[C@]2(C)C([C@](C)(O)C(=O)/C=C/c3ccc([N+](=O)[O-])cc3)=CC[C@@H]12
HepG2 [1]
  IC50: 29 µM

## COc1ccc2c(c1)CC[C@@H]1[C@@H]2CC[C@]2(C)C([C@@](C)(O)C(=O)/C=C/c3ccc(F)cc3)=CC[C@@H]12
HepG2 [1]
  IC50: 7 µM

## COc1ccc2c(c1)CC[C@@H]1[C@@H]2CC[C@]2(C)C([C@@](C)(O)C(=O)/C=C/c3ccc(Br)cc3)=CC[C@@H]12
HepG2 [1]
  IC50: 32 µM

## COc1ccc2c(c1)CC[C@@H]1[C@@H]2CC[C@]2(C)C([C@@](C)(O)C(=O)/C=C/c3ccc(Br)o3)=CC[C@@H]12
HepG2 [1]
  IC50: 6 µM

## COc1ccc2c(c1)CC[C@@H]1[C@@H]2CC[C@]2(C)C([C@@](C)(O)C(=O)/C=C/c3ccc(Br)s3)=CC[C@@H]12
HepG2 [1]
  IC50: 0.7 µM

## COc1ccc2c(c1)CC[C@@H]1[C@@H]2CC[C@]2(C)C([C@](C)(O)C(=O)/C=C/c3ccc(Br)s3)=CC[C@@H]12
HepG2 [1]
  IC50: 11 µM

## COc1ccc(/C=C/C(=O)[C@@](C)(O)C2=CC[C@H]3[C@@H]4CCc5cc(OC)ccc5[C@H]4CC[C@]23C)cc1
HepG2 [1]
  IC50: 16 µM

## COc1ccc2c(c1)CC[C@@H]1[C@@H]2CC[C@]2(C)C([C@](C)(O)C(=O)/C=C/c3ccc(C(F)(F)F)cc3)=CC[C@@H]12
HepG2 [1]
  IC50: 3 µM

## COc1ccc2c(c1)CC[C@@H]1[C@@H]2CC[C@]2(C)C([C@@](C)(O)C(=O)/C=C/c3ccc(Cl)cc3)=CC[C@@H]12
HepG2 [1]
  IC50: 25 µM

## COc1ccc2c(c1)CC[C@@H]1[C@@H]2CC[C@]2(C)C([C@@](C)(O)C(=O)/C=C/C(C)(C)O)=CC[C@@H]12
HepG2 [7]
  Activity: 21.1%
HepG2 [8]
  Activity: 36.1%
HepG2 [9]
  Activity: 23.4%
HepG2 [10]
  Activity: 38%
HepG2 [11]
  Activity: 41.1%
HepG2 [1]
  IC50: 2 µM
HepG2 [12]
  inhibition: Active
HepG2 [13]
  inhibition: Active
HepG2 [14]
  Activity: 23.2%
HepG2 [15]
  Activity: Active
HepG2 [16]
  inhibition: Active
HepG2 [2]
  inhibition (INH): 100%
HepG2 [17]
  Activity: 37.4%
HepG2 [18]
  inhibition: Active
HepG2 [19]
  Activity: Active
HepG2 [20]
  Activity: Active
HepG2 [21]
  inhibition: 90%
HepG2 [22]
  Activity: 37.6%
HepG2 [23]
  Activity: 34.1%

Source: ChEMBL document CHEMBL4346718, “Cucurbitacins inspired organic synthesis: Potential dual inhibitors targeting EGFR - MAPK pathway” (Eur J Med Chem, 2019)
